Counter-ions that a name gives are not always drawn.
Tests used:
JAK2 protein kinase = JAK2 protein kinase (Homo sapiens, UniProt O60674); experiment: biochemical; details: 12 uM ATP, 60 min;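 note: recombinant human JAK2 with ULight-labelled JAK-1(Tyr1023) peptide substrate, phosphorylation detected by TR-FRET using Eu-labelled anti-phosphotyrosine antibody, 1% DMSO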
Description: (§1) Recombinant humanized JAK1, JAK2 and JAK3 protease were all purchased from Life technology. LANCE Ultra ULight™-JAK-1(Tyr1023) peptide and LANCE Eu-W1024 Anti-phosphotyrosine (PT66) were both purchased from PerkinElmer. Envision (PerkinElmer) was used to read a plate.
(§2) The reading was converted into a suppression ratio as follow equation: (%)=(Min−Ratio)/(Max−Min)*100%.

JAK1 protein kinase = JAK1 protein kinase (Homo sapiens, UniProt P23458); experiment: biochemical; details: 38 uM ATP, 90 min
Protocol: In Vitro Activity Test of Jak1, Jak 2 and Jak 3 Kinase
Recombinant humanized JAK1, JAK2 and JAK3 […] were all purchased from Life technology. LANCE Ultra ULight™-JAK-1(Tyr1023) peptide and LANCE Eu-W1024 Anti-phosphotyrosine (PT66) were both purchased from PerkinElmer. Envision (PerkinElmer) was used to read a plate.
Three dilution of a test compound was prepared, and 11 final concentrations were obtained: 10 uM to 0.17 nM. Each concentration had two repeat wells. The content of DMSO in a detection reaction was 1%.
2 nM JAK1 protein kinase, 50 nM LANCE Ultra ULight™-JAK-1(Tyr1023) peptide, 38 uM ATP, 50 mM HEPES (pH7.5), 10 mM MgCl2, 1 mM EGTA, 2 mM DTT, and 0.01% BRIJ-35. Detection plate was White Proxiplate 384-Plus plate (PerkinElmer), the reaction was conducted for 90 min at room temperature, and reaction system was 10 ul.
10 ul detection reagent was added into the reaction plate, wherein the final concentration of LANCE Eu-W1024 Anti-phosphotyrosine (PT66) was 2 nM, the final concentration of EDTA was 10 mM, incubation was conducted for 60 min at room temperature, and the plate was read by the Envision.
The reading was converted into a suppression ratio as follow equation: (%)=([…])/(Max−Min)*100%. IC50 data was detected by 4 parametric curve fitting (Model 205 in XLFIT5, iDBS), see Table 1.

JAK3 = target: T1, JAK3 (Homo sapiens, UniProt P52333); experiment: In vitro activity test of JAK3 kinase (LANCE Ultra TR-FRET); type: biochemical;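 note: recombinant human JAK3 phosphorylating ULight-JAK-1(Tyr1023) peptide at 4 µM ATP, with 1% DMSO, detected by Eu-anti-phosphotyrosine TR-FRET on Envision and converted to percent inhibition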
T1 construct: purchased Life technology
T1 sequence (P52333 1-1124): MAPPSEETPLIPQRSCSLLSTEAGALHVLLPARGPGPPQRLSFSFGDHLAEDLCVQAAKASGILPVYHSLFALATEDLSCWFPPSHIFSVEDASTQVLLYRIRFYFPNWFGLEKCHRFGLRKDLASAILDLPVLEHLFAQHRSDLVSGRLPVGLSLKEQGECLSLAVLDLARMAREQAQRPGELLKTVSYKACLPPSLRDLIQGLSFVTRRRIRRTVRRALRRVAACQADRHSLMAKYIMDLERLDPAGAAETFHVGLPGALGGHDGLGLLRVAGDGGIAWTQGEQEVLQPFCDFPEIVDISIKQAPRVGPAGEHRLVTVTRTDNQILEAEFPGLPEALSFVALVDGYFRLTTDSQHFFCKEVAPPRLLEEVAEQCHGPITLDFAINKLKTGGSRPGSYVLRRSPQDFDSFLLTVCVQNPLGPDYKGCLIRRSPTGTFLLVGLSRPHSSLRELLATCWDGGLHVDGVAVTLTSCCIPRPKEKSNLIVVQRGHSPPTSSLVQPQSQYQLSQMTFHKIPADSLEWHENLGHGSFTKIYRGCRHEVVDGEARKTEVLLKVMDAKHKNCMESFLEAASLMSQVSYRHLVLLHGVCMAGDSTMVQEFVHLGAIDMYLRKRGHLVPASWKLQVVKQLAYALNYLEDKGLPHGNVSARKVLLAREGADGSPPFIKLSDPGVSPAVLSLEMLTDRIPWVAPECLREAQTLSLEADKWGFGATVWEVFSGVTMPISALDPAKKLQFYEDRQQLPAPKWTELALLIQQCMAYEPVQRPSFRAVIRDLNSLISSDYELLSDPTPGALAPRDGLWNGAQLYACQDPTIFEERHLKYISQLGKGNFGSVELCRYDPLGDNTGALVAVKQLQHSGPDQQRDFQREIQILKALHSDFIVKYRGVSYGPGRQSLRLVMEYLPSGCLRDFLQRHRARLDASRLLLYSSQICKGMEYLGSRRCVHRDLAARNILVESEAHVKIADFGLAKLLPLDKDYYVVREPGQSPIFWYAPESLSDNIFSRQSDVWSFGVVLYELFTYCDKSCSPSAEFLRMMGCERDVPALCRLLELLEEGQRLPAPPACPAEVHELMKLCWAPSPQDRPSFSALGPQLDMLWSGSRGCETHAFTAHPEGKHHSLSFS
Protocol: as §1
0.05 nM protein kinase, 50 nM LANCE Ultra ULight™-JAK-1(Tyr1023) peptide, 4 uM ATP, 50 mM HEPES (pH7.5), 10 mM MgCl2, 1 mM EGTA, 2 mM DTT, and 0.01% BRIJ-35.
as §2

JAK2 protein kinase, sequence (O60674 whole entry): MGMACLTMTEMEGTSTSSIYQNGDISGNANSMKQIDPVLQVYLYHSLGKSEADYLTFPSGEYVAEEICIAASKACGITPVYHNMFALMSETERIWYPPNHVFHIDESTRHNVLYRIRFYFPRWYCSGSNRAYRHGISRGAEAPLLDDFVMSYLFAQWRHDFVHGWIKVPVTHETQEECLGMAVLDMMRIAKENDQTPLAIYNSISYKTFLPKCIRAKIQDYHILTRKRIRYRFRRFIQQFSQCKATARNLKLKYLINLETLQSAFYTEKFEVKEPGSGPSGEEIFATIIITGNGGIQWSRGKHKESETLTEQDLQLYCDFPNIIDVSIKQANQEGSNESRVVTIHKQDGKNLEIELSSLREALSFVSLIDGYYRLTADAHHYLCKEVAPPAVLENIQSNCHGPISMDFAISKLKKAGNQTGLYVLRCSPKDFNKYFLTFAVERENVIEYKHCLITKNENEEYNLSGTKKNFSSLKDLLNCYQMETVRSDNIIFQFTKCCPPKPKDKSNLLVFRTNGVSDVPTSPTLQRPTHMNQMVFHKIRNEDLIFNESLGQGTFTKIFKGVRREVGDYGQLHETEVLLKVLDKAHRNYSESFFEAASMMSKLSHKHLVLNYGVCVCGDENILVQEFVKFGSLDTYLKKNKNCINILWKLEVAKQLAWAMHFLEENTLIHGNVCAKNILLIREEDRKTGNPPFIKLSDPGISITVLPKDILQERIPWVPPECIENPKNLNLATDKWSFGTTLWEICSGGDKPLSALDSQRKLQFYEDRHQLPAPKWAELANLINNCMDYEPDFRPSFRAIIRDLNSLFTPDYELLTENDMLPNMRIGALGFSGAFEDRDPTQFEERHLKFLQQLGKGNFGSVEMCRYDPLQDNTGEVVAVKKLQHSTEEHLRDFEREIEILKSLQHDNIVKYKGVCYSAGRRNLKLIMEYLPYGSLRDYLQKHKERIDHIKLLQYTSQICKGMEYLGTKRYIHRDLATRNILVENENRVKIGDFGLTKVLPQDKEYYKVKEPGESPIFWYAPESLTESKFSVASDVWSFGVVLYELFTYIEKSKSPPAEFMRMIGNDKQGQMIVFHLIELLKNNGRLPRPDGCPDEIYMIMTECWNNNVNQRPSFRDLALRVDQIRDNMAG
JAK1 protein kinase, sequence (P23458 whole entry): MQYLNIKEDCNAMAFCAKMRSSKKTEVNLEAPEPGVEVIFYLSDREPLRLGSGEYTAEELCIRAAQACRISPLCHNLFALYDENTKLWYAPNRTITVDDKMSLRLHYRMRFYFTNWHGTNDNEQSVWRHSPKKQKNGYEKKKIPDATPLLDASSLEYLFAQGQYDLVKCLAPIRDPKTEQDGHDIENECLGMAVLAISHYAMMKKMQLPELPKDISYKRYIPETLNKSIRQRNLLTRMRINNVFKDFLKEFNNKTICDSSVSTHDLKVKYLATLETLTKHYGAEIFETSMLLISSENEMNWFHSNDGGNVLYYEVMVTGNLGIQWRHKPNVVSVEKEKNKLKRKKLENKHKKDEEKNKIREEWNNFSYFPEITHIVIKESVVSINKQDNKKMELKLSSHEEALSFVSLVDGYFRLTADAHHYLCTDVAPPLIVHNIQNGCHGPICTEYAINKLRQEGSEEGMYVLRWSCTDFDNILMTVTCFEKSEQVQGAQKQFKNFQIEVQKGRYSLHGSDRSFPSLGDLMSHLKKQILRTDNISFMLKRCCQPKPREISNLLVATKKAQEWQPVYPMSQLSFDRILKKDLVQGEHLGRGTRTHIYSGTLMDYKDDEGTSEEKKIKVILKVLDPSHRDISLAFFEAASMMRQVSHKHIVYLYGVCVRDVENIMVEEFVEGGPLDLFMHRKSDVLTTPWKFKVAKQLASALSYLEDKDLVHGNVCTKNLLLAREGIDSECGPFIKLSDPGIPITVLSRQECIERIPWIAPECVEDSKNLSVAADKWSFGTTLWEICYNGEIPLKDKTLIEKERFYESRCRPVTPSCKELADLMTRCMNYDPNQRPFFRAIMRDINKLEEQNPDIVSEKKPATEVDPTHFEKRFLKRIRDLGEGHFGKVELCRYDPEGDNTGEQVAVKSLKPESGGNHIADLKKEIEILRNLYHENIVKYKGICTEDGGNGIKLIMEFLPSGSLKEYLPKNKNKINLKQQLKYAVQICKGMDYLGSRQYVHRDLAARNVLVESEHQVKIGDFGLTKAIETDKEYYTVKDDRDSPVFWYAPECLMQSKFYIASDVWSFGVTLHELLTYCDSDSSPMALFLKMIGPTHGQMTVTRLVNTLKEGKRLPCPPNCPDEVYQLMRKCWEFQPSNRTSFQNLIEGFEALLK

| Structure (SMILES) | IC50 (JAK2 protein kinase) | IC50 (JAK1 protein kinase) | IC50 (JAK3) |
| --- | --- | --- | --- |
| CN(c1ncnc2[nH]ccc12)N1CCCC(N2CCCC2=O)C1 (stereo not drawn) [WX29, 1-[1-[methyl(7H-pyrrolo[2,3-d]pyrimidin-4-yl)amino]-3-piperidinyl]pyrrolid-2-one] | > 1000 nM | > 1000 nM | 100 to 1000 nM |
| CN(c1ncnc2[nH]ccc12)N1CCC(C(=O)NCC#N)C1 (stereo not drawn) [WX30, N-(cyanomethyl)-1-[methyl(7H-pyrrolo[2,3-d]pyrimidin-4-yl)amino]pyrrolidyl-3-formamide] | 10 to 100 nM | < 10 nM | 10 to 100 nM |
| CN(c1ncnc2[nH]ccc12)N1CCC(C(=O)NCC(F)(F)F)C1 (stereo not drawn) [WX31, 1-[methyl(7H-pyrrolo[2,3-d]pyrimidin-4-yl)amino]-N-(2,2,2-trifluoroethyl)pyrrolidyl-3-formamide] | 10 to 100 nM | < 10 nM | 10 to 100 nM |
| CN(c1ncnc2[nH]ccc12)N1CCCN(C(=O)CC#N)CC1 [WX34, 3-(4-(methyl(7H-pyrrolo[2,3-d]pyrimidin-4-yl)amino)-1,4-diazepan-1-yl)-3-carbonyl-propionitrile] | 100 to 1000 nM | 100 to 1000 nM | 100 to 1000 nM |
| O=C(CC(F)(F)F)N1CCCN(Nc2ncnc3[nH]ccc23)CC1 [WX35, L-(4-((7H-pyrrolo[2,3-d]pyrimidin-4-yl)amino)-diazepan-1-yl)-3,3,3-trifluorotrifluoropropan-1-one] | > 1000 nM | > 1000 nM | > 1000 nM |
| CN(c1ncnc2[nH]ccc12)N1CCCN(C(=O)CC(F)(F)F)CC1 [WX36] | > 1000 nM | 100 to 1000 nM | > 1000 nM |
| CN(c1ncnc2[nH]ccc12)N1CCCC(C)(C(=O)NCC#N)C1 (stereo not drawn) [WX37, N-(cyanomethyl)-3-methyl-1-[methyl(7H-pyrrolo[2,3-d]pyrimidie-yl)amino]piperidyl-3-formamide] | > 1000 nM | > 1000 nM | > 1000 nM |
| CN(c1ncnc2[nH]ccc12)N1CCCC(C)(C(=O)NCC(F)(F)F)C1 (stereo not drawn) [WX38, 3-methyl-11-(methyl(7H-pyrrolo[2,3-d]pyrimidine-4-yl)amino)-N-(2,2,2-trifluoroethyl)piperidyl-3-formamide] | > 1000 nM | > 1000 nM | > 1000 nM |
| O=C(NCC(F)(F)F)C1CN(Nc2ncnc3[nH]ccc23)CCO1 (stereo not drawn) [WX40, 4-((7H-pyrrolo[2,3-d]pyrimidin-4-yl)amino)-N-(2,2,2-trifluoroethyl)morpholine-2-form amide] | > 1000 nM | 10 to 100 nM | > 1000 nM |
| CN(c1ncnc2[nH]ccc12)N1CCOC(C(=O)NCC(F)(F)F)C1 (stereo not drawn) [WX41, 4-(methyl(7H-pyrrolo[2,3-d]pyrimidin-4-yl)amino)-N-(2,2,2-trifluoroethyl)morpholine-2-formamide] | 100 to 1000 nM | 10 to 100 nM | 100 to 1000 nM |
| COCNC(=O)C1CCCN(N(C)c2ncnc3[nH]ccc23)C1 (stereo not drawn) [WX42] | 100 to 1000 nM | 10 to 100 nM | 10 to 100 nM |
| CSCNC(=O)C1CCCN(N(C)c2ncnc3[nH]ccc23)C1 (stereo not drawn) [WX43] | 10 to 100 nM | < 10 nM | 10 to 100 nM |
| CN(c1ncnc2[nH]ccc12)N1CCCC(CC#N)C1 (stereo not drawn) [WX44, 2-[1-[methyl[7H-pyrrole[2,3-d]pyrimidine-4-]amino]-3-piperidyl]acetonitrile] | 100 to 1000 nM | 10 to 100 nM | 100 to 1000 nM |
| CN(c1ncnc2[nH]ccc12)N1CCCC(CNC(=O)CC#N)C1 (stereo not drawn) [WX45] | 100 to 1000 nM | 10 to 100 nM | 100 to 1000 nM |
| CN(c1ncnc2[nH]ccc12)N1CCCC(C(=O)NCC(F)(F)C(F)(F)F)C1 (stereo not drawn) [WX46, 1-[methyl(7H-pyrrole[2,3-d]pyrimidine-4-)amino]-N-(2,2,3,3,3-pentafluoropropyl)piperidyl-3-formamide] | 10 to 100 nM | ≤ 10 nM | 10 to 100 nM |
| CN(c1ncnc2[nH]ccc12)N1CCCC(C(=O)NCC(F)F)C1 (stereo not drawn) [WX47, 1-[methyl(7H-pyrrole[2,3-d]pyrimidine-4-)amino]-N-(2,2-difluoroethyl)piperidyl-3-formamide] | 10 to 100 nM | ≤ 10 nM | < 10 nM |
| CC(C)(C)OC(=O)N1CC2CN(Nc3ncnc4[nH]ccc34)CC2C1 (stereo not drawn) [WX48, 5-[[7H-pyrrole[2,3-d]pyrimidine-4-]amino]-hexahydropyrrolo[3,4-c]pyrrole-2(1H)-tert-butyl formate] | > 1000 nM | > 1000 nM | > 1000 nM |
| CN(c1ncnc2[nH]ccc12)N1CCCC(C(=O)Nc2cccc(C(F)(F)F)c2)C1 (stereo not drawn) [WX53, 1-[methyl(7H-pyrrolo[2,3-d]pyrimidin-4-yl)amino]-N-[3-(trifluoromethyl)phenyl]piperidyl-3-formamide] | 100 to 1000 nM | 10 to 100 nM | 100 to 1000 nM |
| CN(c1ncnc2[nH]ccc12)N1CCCC(C(=O)N2CC(O)C2)C1 (stereo not drawn) [WX54] | 100 to 1000 nM | 100 to 1000 nM | 100 to 1000 nM |
| N#CCC(=O)N1CC2CCN(Nc3ncnc4[nH]ccc34)CC2C1 (stereo not drawn) [WX55, 3-[5-(7H-pyrrolo[2,3-d]pyrimidin-4-ylamino)-hexahydro-1H-pyrrolo[3,4-c]pyridin-2-yl]3-oxopropanenitrile] | > 1000 nM | 100 to 1000 nM | > 1000 nM |
| CN(c1ncnc2[nH]ccc12)N1CCCC(C(=O)NC2CC(F)(F)C2)C1 (stereo not drawn) [WX56] | > 1000 nM | < 10 nM | 10 to 100 nM |
| CN(c1ncnc2[nH]ccc12)N1CCCC(c2ncc(C(F)(F)F)[nH]2)C1 (stereo not drawn) [WX57, N-methyl-N-[3-[5-trifluoromethyl-1H-imidazol-2-yl]-1-piperidinyl]-7H-pyrrolo[2,3-d]pyrimidine-4-amine] | 10 to 100 nM | 10 to 100 nM | 10 to 100 nM |
| O=C(NCC(F)(F)F)C1CCCN(N(c2ncnc3[nH]ccc23)C2CC2)C1 (stereo not drawn) [WX58, 1-[cyclopropyl(7H-pyrrolo[2,3-d]pyrimidin-4-yl)amino]-N-(2,2,2-trifluoroethyl)piperidyl-3-formamide] | 100 to 1000 nM | 10 to 100 nM | 100 to 1000 nM |
| O=C(NCC(F)(F)F)C1CCC2(CC1)CCN(Nc1ncnc3[nH]ccc13)CC2 [WX59] | > 1000 nM | 100 to 1000 nM | > 1000 nM |
